Experimental data taken from ChEMBL document CHEMBL3885861, “Open TG-GATES”.

Organism: Rattus norvegicus
Experiment: Open TG-GATES - Regimen: Daily Repeat
Assay type: toxicity, organism-based, Sprague-Dawley
Design: regimen Daily Repeat, gender Male, age 6 weeks
Conditions: in vivo, po, route gavage; for Bas / Eos / Fbg / Lym / MCH / MCHC / MCV / Mono / Neu / PT / Plat / RBC / Ret / WBC: tissue Blood; for KIDNEY_L / KIDNEY_R / KIDNEY_TOTAL: tissue Kidney; for ALP / ALT / AST / BUN / CRE / DBIL / IP / K / LDH / Na / RALB / TBIL / TC / TG / TP / gamma-GTP / GLC: tissue Plasma
[1] = 0 mg/kg, 72 h, dose level Control, time 3 day
[2] = 0 mg/kg, […], dose level Control, time 7 day
[3] = 0 mg/kg, […], dose level Control, time 14 day
[4] = 0 mg/kg, […], dose level Control, time 28 day
[5] = 3 mg/kg, 72 h, dose level Low, time 3 day
[6] = 3 mg/kg, […], dose level Low, time 7 day
[7] = 3 mg/kg, […], dose level Low, time 14 day
[8] = 3 mg/kg, […], dose level Low, time 28 day

Cc1cnc(NC(=O)C2=C(O)c3ccccc3S(=O)(=O)N2C)s1 [MELOXICAM] gave a TERMINAL_BW [1] of 245.1 g, a Bas [1] of 0.8% and an Eos [1] of 1.2%. For the same molecule, the Fbg [1] was 223.6 mg/dL, the Lym [1] was 78.4% and the MCH [1] was 21.4 pg. For the same molecule, the MCHC [1] was 34.2%, the MCV [1] was 62.4 fL and the Mono [1] was 2.8%. For the same molecule, the Neu [1] was 17%, the PT [1] was 11.9 s and the Plat [1] was 120 x10_4/uL. It also gave an RBC [1] of 645.4 x10_4/ul, a Ret [1] of 5.5% and a KIDNEY_L [1] of 1 g. It also gave a KIDNEY_R [1] of 1 g, a KIDNEY_TOTAL [1] of 2 g and an ALP [1] of 947 IU/L. It also gave an ALT [1] of 42.2 IU/L, an AST [1] of 70.4 IU/L and a BUN [1] of 18 mg/dL. It also gave a CRE [1] of 0.4 mg/dL, a DBIL [1] of 0.1 mg/dL and an IP [1] of 7.7 mg/dL. For the same molecule, the K [1] was 4.1 meq/L, the LDH [1] was 199.2 IU/L and the Na [1] was 141 meq/L. For the same molecule, the RALB [1] was 3.5 g/dL, the TBIL [1] was 0.2 mg/dL and the TC [1] was 70.8 mg/dL. For the same molecule, the TG [1] was 111.6 mg/dL, the TP [1] was 5.6 g/dL and the gamma-GTP [1] was 1 IU/L. For the same molecule, the TERMINAL_BW [2] was 281.9 g, the TERMINAL_BW [3] was 300.3 g and the TERMINAL_BW [4] was 396.9 g. It also gave a Bas [2] of 0.8%, an Eos [2] of 1% and a Fbg [2] of 216.6 mg/dL. It also gave a Lym [2] of 78.4%, an MCH [2] of 21.4 pg and an MCHC [2] of 34.9%. For the same molecule, the MCV [2] was 61.4 fL, the Mono [2] was 2.4% and the Neu [2] was 16.6%. It also gave a PT [2] of 11.9 s, a Plat [2] of 139.5 x10_4/uL and an RBC [2] of 655.6 x10_4/ul. The Ret [2] was 5.1%, the Bas [3] was 1% and the Eos [3] was 0.8%. For the same molecule, the Fbg [3] was 226.8 mg/dL, the Lym [3] was 78.4% and the MCH [3] was 20.1 pg. For the same molecule, the MCHC [3] was 34%, the MCV [3] was 59.1 fL and the Mono [3] was 2.8%. For the same molecule, the Neu [3] was 16.8%, the PT [3] was 11.6 s and the Plat [3] was 111.1 x10_4/uL. For the same molecule, the RBC [3] was 734.2 x10_4/ul, the Ret [3] was 3.2% and the Bas [4] was 1%. It also gave an Eos [4] of 1%, a Fbg [4] of 207.2 mg/dL and a Lym [4] of 87%. It also gave an MCH [4] of 19.3 pg, an MCHC [4] of 34.4% and an MCV [4] of 56.1 fL. For the same molecule, the Mono [4] was 1.5%, the Neu [4] was 9% and the PT [4] was 11.6 s. The RBC [4] was 768.2 x10_4/ul, the Ret [4] was 2.4% and the WBC [4] was 144.5 x10_2/uL. For the same molecule, the KIDNEY_L [2] was 1.2 g, the KIDNEY_R [2] was 1.1 g and the KIDNEY_TOTAL [2] was 2.3 g. The KIDNEY_L [3] was 1.2 g, the KIDNEY_R [3] was 1.2 g and the KIDNEY_TOTAL [3] was 2.4 g. The KIDNEY_L [4] was 1.4 g, the KIDNEY_R [4] was 1.3 g and the KIDNEY_TOTAL [4] was 2.7 g. The ALP [2] was 892.2 IU/L, the ALT [2] was 33.8 IU/L and the AST [2] was 68.2 IU/L. For the same molecule, the BUN [2] was 15.8 mg/dL, the CRE [2] was 0.4 mg/dL and the DBIL [2] was 0.082 mg/dL. The GLC [2] was 214.8 mg/dL, the IP [2] was 7.3 mg/dL and the K [2] was 3.8 meq/L. For the same molecule, the LDH [2] was 190.6 IU/L, the Na [2] was 142 meq/L and the RALB [2] was 3.3 g/dL. For the same molecule, the TBIL [2] was 0.1 mg/dL, the TC [2] was 67.2 mg/dL and the TG [2] was 110.2 mg/dL. The TP [2] was 5.7 g/dL, the gamma-GTP [2] was 1.2 IU/L and the ALP [3] was 880.6 IU/L. For the same molecule, the ALT [3] was 36.6 IU/L, the AST [3] was 69.6 IU/L and the BUN [3] was 16.4 mg/dL. It also gave a CRE [3] of 0.4 mg/dL, a DBIL [3] of 0.094 mg/dL and an IP [3] of 6.9 mg/dL. It also gave a K [3] of 4 meq/L, an LDH [3] of 178.6 IU/L and a Na [3] of 142 meq/L. The RALB [3] was 3.6 g/dL, the TBIL [3] was 0.2 mg/dL and the TC [3] was 69 mg/dL. The TG [3] was 113.2 mg/dL, the TP [3] was 6.1 g/dL and the gamma-GTP [3] was 1 IU/L. For the same molecule, the ALP [4] was 523.8 IU/L, the ALT [4] was 32 IU/L and the AST [4] was 65.8 IU/L. The BUN [4] was 18.2 mg/dL, the CRE [4] was 0.5 mg/dL and the DBIL [4] was 0.1 mg/dL. The GLC [4] was 239.5 mg/dL, the IP [4] was 6.9 mg/dL and the K [4] was 4.1 meq/L. The LDH [4] was 187.8 IU/L, the Na [4] was 140.8 meq/L and the RALB [4] was 3.5 g/dL. For the same molecule, the TBIL [4] was 0.2 mg/dL, the TC [4] was 69 mg/dL and the TG [4] was 141.2 mg/dL. The TP [4] was 5.9 g/dL, the gamma-GTP [4] was 0.5 IU/L and the TERMINAL_BW [5] was 246.9 g. It also gave a Bas [5] of 0.8%, an Eos [5] of 0.8% and a Fbg [5] of 225.2 mg/dL. The Lym [5] was 83%, the MCH [5] was 21.6 pg and the MCHC [5] was 34.6%. The MCV [5] was 62.5 fL, the Mono [5] was 2.2% and the Neu [5] was 13%. For the same molecule, the PT [5] was 11.8 s, the Plat [5] was 121.1 x10_4/uL and the RBC [5] was 639.2 x10_4/ul. The Ret [5] was 5.7%, the KIDNEY_L [5] was 1.1 g and the KIDNEY_R [5] was 1.1 g. It also gave a KIDNEY_TOTAL [5] of 2.2 g, an ALP [5] of 950.2 IU/L and an ALT [5] of 35.6 IU/L. For the same molecule, the AST [5] was 62.4 IU/L, the BUN [5] was 15.2 mg/dL and the CRE [5] was 0.4 mg/dL. It also gave a DBIL [5] of 0.1 mg/dL, an IP [5] of 7.6 mg/dL and a K [5] of 4.1 meq/L. For the same molecule, the LDH [5] was 195.6 IU/L, the Na [5] was 141 meq/L and the RALB [5] was 3.5 g/dL. The TBIL [5] was 0.2 mg/dL, the TC [5] was 69.8 mg/dL and the TG [5] was 140.8 mg/dL. It also gave a TP [5] of 5.6 g/dL, a gamma-GTP [5] of 0.8 IU/L and a TERMINAL_BW [6] of 277.7 g. For the same molecule, the TERMINAL_BW [7] was 332.6 g, the TERMINAL_BW [8] was 420.4 g and the Bas [6] was 1%. It also gave an Eos [6] of 1%, a Fbg [6] of 226.4 mg/dL and a Lym [6] of 81.6%. For the same molecule, the MCH [6] was 21.9 pg, the MCHC [6] was 34.7% and the MCV [6] was 63.3 fL. The Mono [6] was 2.4%, the Neu [6] was 14.6% and the PT [6] was 11.9 s. The Plat [6] was 124.9 x10_4/uL, the RBC [6] was 637.8 x10_4/ul and the Ret [6] was 5.5%. The WBC [6] was 129.6 x10_2/uL, the Bas [7] was 1% and the Eos [7] was 1%. For the same molecule, the Fbg [7] was 222.4 mg/dL, the Lym [7] was 80% and the MCH [7] was 20.4 pg. It also gave an MCHC [7] of 33.6%, an MCV [7] of 60.7 fL and a Mono [7] of 2.6%. The Neu [7] was 15.2%, the PT [7] was 11.6 s and the Plat [7] was 118.9 x10_4/uL. It also gave an RBC [7] of 689.2 x10_4/ul, a Ret [7] of 4.1% and a WBC [7] of 124.4 x10_2/uL. For the same molecule, the Bas [8] was 1%, the Eos [8] was 1% and the Fbg [8] was 213.8 mg/dL. For the same molecule, the Lym [8] was 81.2%, the MCH [8] was 18.9 pg and the MCHC [8] was 34.2%. It also gave an MCV [8] of 55.2 fL, a Mono [8] of 2.2% and a Neu [8] of 13.4%. The PT [8] was 11.7 s, the Plat [8] was 115.1 x10_4/uL and the RBC [8] was 790 x10_4/ul. The Ret [8] was 2.5%, the WBC [8] was 131 x10_2/uL and the KIDNEY_L [6] was 1.3 g. For the same molecule, the KIDNEY_R [6] was 1.2 g, the KIDNEY_TOTAL [6] was 2.5 g and the KIDNEY_L [7] was 1.4 g. The KIDNEY_R [7] was 1.3 g, the KIDNEY_TOTAL [7] was 2.7 g and the KIDNEY_L [8] was 1.5 g. For the same molecule, the KIDNEY_R [8] was 1.5 g, the KIDNEY_TOTAL [8] was 3 g and the ALP [6] was 971.8 IU/L. For the same molecule, the ALT [6] was 37 IU/L, the AST [6] was 68.4 IU/L and the BUN [6] was 15.2 mg/dL. The CRE [6] was 0.4 mg/dL, the DBIL [6] was 0.098 mg/dL and the IP [6] was 7.4 mg/dL. The K [6] was 4.1 meq/L, the LDH [6] was 186.8 IU/L and the Na [6] was 141.8 meq/L. For the same molecule, the RALB [6] was 3.4 g/dL, the TBIL [6] was 0.2 mg/dL and the TC [6] was 72.6 mg/dL. It also gave a TG [6] of 128.8 mg/dL, a TP [6] of 5.7 g/dL and a gamma-GTP [6] of 1.2 IU/L. The ALP [7] was 820.8 IU/L, the AST [7] was 75.2 IU/L and the BUN [7] was 17 mg/dL. The CRE [7] was 0.5 mg/dL, the DBIL [7] was 0.1 mg/dL and the GLC [7] was 214.6 mg/dL. For the same molecule, the IP [7] was 7.4 mg/dL, the K [7] was 4 meq/L and the LDH [7] was 223.6 IU/L. The Na [7] was 141.4 meq/L, the RALB [7] was 3.5 g/dL and the TBIL [7] was 0.2 mg/dL. It also gave a TC [7] of 72.6 mg/dL, a TG [7] of 141.8 mg/dL and a TP [7] of 5.9 g/dL. The gamma-GTP [7] was 1 IU/L.
